Source: the supplement of paper PMC10307832

Key:
Experiment in all cases: relative viability (nuclei count vs DMSO), 5 days (fraction); higher = more cells survive
[1] = compound: C1CC(C1)(C(=O)O)C(=O)O.[NH2-].[NH2-].[Pt+2] [Carboplatin] + C[C@@H](Oc1cc(-c2cnn(C3CCNCC3)c2)cnc1N)c1c(Cl)ccc(F)c1Cl [Crizotinib] (partner 1 µM)
In short: (§1)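 Cells from lung cancer lines were seeded into 1536-well plates and, one day later, dosed by pin tool. Treatments were either a single drug or a fixed dose of an anchor drug with five library-drug doses (not always all listed) in √10 steps. After 5 days, nuclei were stained in a one-step fixation (final 0.05% Triton X-100, 1% formaldehyde, 1 ug/ml Hoechst) and counted on 4× images, and relative viability is the treated-to-vehicle nuclei ratio, as the median of duplicate plates.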

[2] = compound: C1CC(C1)(C(=O)O)C(=O)O.[NH2-].[NH2-].[Pt+2] [Carboplatin] + O=C(CCCCCCC(=O)Nc1ccccc1)NO [Vorinostat] (partner 1 µM)
In short: as §1

[3] = compound: NS(=O)(=O)OC[C@@H]1C[C@@H](n2ccc3c(N[C@H]4CCc5ccccc54)ncnc32)C[C@@H]1O [MLN4924] + CC1(C)CCC(c2ccc(Cl)cc2)=C(CN2CCN(c3ccc(C(=O)NS(=O)(=O)c4ccc(N[C@H](CCN5CCOCC5)CSc5ccccc5)c(S(=O)(=O)C(F)(F)F)c4)cc3)CC2)C1 [Navitoclax] (partner 0.5 µM)
In short: as §1

[4] = compound: NS(=O)(=O)OC[C@@H]1C[C@@H](n2ccc3c(N[C@H]4CCc5ccccc54)ncnc32)C[C@@H]1O [MLN4924] + O=C(c1cc(Cc2n[nH]c(=O)c3ccccc23)ccc1F)N1CCN(C(=O)C2CC2)CC1 [Olaparib] (partner 8 µM)
In short: as §1

Cell Line	relative viability ([1]; first compound 0.08 µM)	relative viability ([1]; first compound 0.253 µM)	relative viability ([1]; first compound 0.8 µM)	relative viability ([1]; first compound 2.53 µM)	relative viability ([1]; first compound 8 µM)	relative viability ([2]; first compound 0.08 µM)	relative viability ([2]; first compound 0.253 µM)	relative viability ([2]; first compound 0.8 µM)	relative viability ([2]; first compound 2.53 µM)	relative viability ([2]; first compound 8 µM)	relative viability ([3]; first compound 0.04 µM)	relative viability ([3]; first compound 0.1265 µM)	relative viability ([3]; first compound 0.4 µM)	relative viability ([3]; first compound 1.265 µM)	relative viability ([3]; first compound 4 µM)	relative viability ([4]; first compound 0.04 µM)	relative viability ([4]; first compound 0.1265 µM)	relative viability ([4]; first compound 0.4 µM)	relative viability ([4]; first compound 1.265 µM)	relative viability ([4]; first compound 4 µM)
NCI-H1651	0.931	0.929	0.738	0.748	0.712	0.617	0.556	0.588	0.524	0.483	1.1	1.08	0.492	0.267	0.142	0.176	0.182	0.176	0.138	0.0847
HOP-62	1.04	1	0.925	0.88	0.534	0.654	0.662	0.635	0.664	0.542	0.553	0.238	0.171	0.111	0.0613	0.205	0.303	0.0801	0.0633	0.0555
HCC-44	0.752	0.822	0.742	0.751	0.668	1.14	1.11	1.03	0.999	0.957	0.689	0.4	0.265	0.197	0.196	0.882	0.748	0.694	0.538	0.414
HCC-15	0.914	0.875	0.775	0.688	0.643	0.923	0.904	0.859	0.743	0.558	0.526	0.3	0.185	0.0995	0.114	0.318	0.164	0.159	0.106	0.0825
NCI-H460	0.799	0.809	0.76	0.614	0.16	0.761	0.629	0.582	0.235	0.076	1.01	1.04	0.431	0.0395	0.024	0.395	0.372	0.427	0.0925	0.0401
SK-LU-1	1.09	1.08	1.05	0.961	0.626	0.923	0.657	0.861	0.664	0.459	0.737	0.618	0.175	0.127	0.167	0.493	0.433	0.256	0.157	0.172
COR-L 105	0.814	0.812	0.757	0.609	0.501	0.817	0.855	0.92	0.739	0.48	0.725	0.511	0.326	0.231	0.281	0.5	0.568	0.427	0.278	0.335
COR-L23	0.561	0.645	0.606	0.48	0.28	0.588	0.446	0.36	0.262	0.149	0.948	0.885	0.568	0.275	0.113	0.32	0.331	0.199	0.124	0.114
NCI-H3122	0.3	0.299	0.275	0.323	0.28	0.874	0.729	0.99	1.06	1	0.929	0.448	0.262	0.171	0.164	0.535	0.235	0.251	0.112	0.0876
NCI-H23	0.638	0.542	0.516	0.488	0.39	0.658	0.632	0.522	0.62	0.343	0.759	0.69	0.281	0.218	0.148	0.343	0.245	0.239	0.143	0.131
PC-3 [JPC-3]	1.03	1.04	0.962	0.966	0.902	1.14	0.799	0.9	0.765	0.685	0.785	0.788	0.66	0.321	0.419	1.16	1.05	0.298	0.436	0.452
NCI-H2228	0.469	0.517	0.41	0.593	0.428	0.748	0.0948	0.623	0.566	0.343		1.03	0.221	0.135	0.155	0.486	0.532	0.279	0.109	0.162
NCI-H2087	0.817	0.907	0.8	0.845	0.769	0.981	1.23	0.62	0.531	0.396	0.923	0.682	0.379	0.177	0.132	0.552	0.54	0.281	0.159	0.0852
NCI-H596	0.895	0.983	0.834	0.783	0.735	0.669	0.654	0.509	0.368	0.467	0.969	0.99	0.62	0.68	0.28	0.815	0.626	0.436	0.595	0.557
ChaGo-K-1	1.14	1.09	0.943	0.647	0.579	0.752	0.704	0.649	0.577	0.4	0.708	0.574	0.394	0.309	0.326	0.279	0.205	0.227	0.153	0.147
SW 1573	0.821	0.781	0.652	0.886	0.661	0.739	1.01	0.865	0.817	0.396	0.887	1.12	0.439	0.0613	0.0532	0.486	0.303	0.108	0.0465	0.07
